# Laboratory results reported in patent publication US20210145804A1, “COMPOSITIONS AND METHODS FOR TREATING DISORDERS AMELIORATED BY MUSCARINIC RECEPTOR ACTIVATION” (Karuna Therapeutics, Inc., priority 2019, published 2021).
# Marks after values point to notes of the source that are not given here.
# Tests used:
# [1] = KAR-001 Phase I study: xanomeline and trospium plasma pharmacokinetics; assay type: in vivo, human
# [2] = Mutagenic potential of xanomeline synthesis intermediate
# Alzheimer's disease = conditions: 26-week study of Alzheimer's disease; cited from earlier work
# [3] = test system: normal healthy volunteers; design: species or system human; conditions: in vivo
# Protocol: A Phase I, double-blind, randomized multiple-dose pilot study was conducted with xanomeline administered alone compared to xanomeline administered with trospium chloride in normal healthy volunteers. […]
structure (smiles),measurement,setting,value
"O=C(O[C@H]1C[C@H]2CC[C@@H](C1)[N+]21CCCC1)C(O)(c1ccccc1)c1ccccc1 [trospium alone, trospium chloride]",Trospium Tmax,"[1]; KAR-001 Day 1, 20 mg trospium BID lead-in, median",3.0 h
same,Tmax,"[1]; human, in vivo, 20 mg, KAR-001 Day 1, read-out: Trospium median Tmax",3 h
same,Cmax,"[1]; human, in vivo, KAR-001 Day 1, 20 mg trospium BID lead-in, geometric mean",0.722 ng/mL
same,AUC(0-inf),"[1]; human, in vivo, KAR-001 Day 1, 20 mg trospium BID lead-in, geometric mean, read-out: Trospium AUC0-inf",7.79 ng·h/mL
same,AUC,"[1]; human, in vivo, KAR-001 Day 1, 20 mg trospium BID lead-in, geometric mean, read-out: Trospium AUC0-tau",5.03 ng·h/mL
CCCCCCOc1nsnc1-c1ccc[n+](C)c1 [Compound V],Mutagenic potential,[2],negative
"CCCCCCOc1nsnc1C1=CCCN(C)C1 [Xanomeline + placebo, xanomeline]",Dropout rate,Alzheimer's disease,56%
same,AE leading to discontinuation (D/C),[3],2 (6.1) n (%)
same,AE leading to discontinuation (D/C): # events,[3],2
same,Any SAE,[3],0 (0.0) n (%)
same,Any TEAE: # events,[3],108
same,"Any cholinergic TEAEs, number of individual occurrences",[3],64 #
same,Any clinically significant TEAE,[3],5 (15.2) n (%)
same,Any clinically significant TEAE: # events,[3],5
same,Any study drug-related TEAE,[3],23 (69.7) n (%)
same,Any study drug-related TEAE: # events,[3],92
same,"Cholinergic adverse events, Any TEAEs: # of events",[3],64
same,"Cholinergic adverse events, Any TEAEs: subjects",[3],21 (63.6%) n [%]
same,"Cholinergic adverse events, Diarrhea: # of events",[3],8
same,"Cholinergic adverse events, Diarrhea: subjects",[3],7 (21.2%) n [%]
same,"Cholinergic adverse events, Nausea: # of events",[3],11
same,"Cholinergic adverse events, Nausea: subjects",[3],8 (24.2%) n [%]
same,"Cholinergic adverse events, Salivation: # of events",[3],16
same,"Cholinergic adverse events, Salivation: subjects",[3],12 (36.4%) n [%]
same,"Cholinergic adverse events, Sweating: # of events",[3],24
same,"Cholinergic adverse events, Sweating: subjects",[3],16 (48.5%) n [%]
same,"Cholinergic adverse events, Vomiting: # of events",[3],5
same,"Cholinergic adverse events, Vomiting: subjects",[3],5 (15.2%) n [%]
same,"Diarrhea, incidence",[3],7 (20.6) n (%)
same,"Diarrhea, number of individual occurrences",[3],8 #
same,"Gastrointestinal disorders (cholinergic TEAE), incidence",[3],18 (52.9) n (%)
same,"Gastrointestinal disorders (cholinergic TEAE), number of individual occurrences",[3],40 #
same,"Hyperhidrosis, incidence",[3],16 (47.1) n (%)
same,"Hyperhidrosis, number of individual occurrences",[3],24 #
same,Incidence rate of sweating (hyperhidrosis),[3],48.5%
same,Max Severity of TEAE: Mild,[3],22 (66.7) N/A n (%)
same,Max Severity of TEAE: Moderate,[3],5 (15.2) N/A n (%)
same,Max Severity of TEAE: Severe,[3],0 (0.0) n (%)
same,Max severity of study drug-related TEAE: Mild,[3],19 (57/6) N/A n (%)
same,Max severity of study drug-related TEAE: Moderate,[3],4 (12.1) N/A n (%)
same,Max severity of study drug-related TEAE: Severe,[3],0 (0.0) N/A n (%)
same,"Nausea, incidence",[3],8 (23.5) n (%)
same,"Nausea, number of individual occurrences",[3],11 #
same,"Salivary hypersecretion, incidence",[3],12 (35.3) n (%)
same,"Salivary hypersecretion, number of individual occurrences",[3],16 #
same,"Skin and subcutaneous tissue disorders (cholinergic TEAE), incidence",[3],16 (47.1) n (%)
same,"Skin and subcutaneous tissue disorders (cholinergic TEAE), number of individual occurrences",[3],24 #
same,Study drug related AE leading to D/C,[3],1 (3.0) n (%)
same,Study drug related AE leading to D/C: # events,[3],1
same,Subjects reporting at least one cholinergic adverse event,[3],63%
same,Subjects who experienced syncope,[3],Two
same,Subjects with any TEAE,[3],27 (81.8) n (%)
same,"Subjects with any cholinergic TEAEs, incidence",[3],21 (61.8) n (%)
same,"Vomiting, incidence",[3],5 (14.7) n (%)
same,"Vomiting, number of individual occurrences",[3],5 #
